Results taken from patent US5441941A, “1,2-dihydroellipticines with activity against CNS specific cancer” (The United States of America as represented by the …, priority 1993, dated 1995).

Tests used:
K-562 = experiment: NCI in vitro screen, SRB percent growth, Leukemia
NCI-H460 = experiment: NCI in vitro screen, SRB percent growth, Non-Small Cell Lung Cancer
OVCAR-3 = experiment: NCI in vitro screen, SRB percent growth, Ovarian Cancer
CNS cancer cell lines = experiment: NCI in vitro screen, overall result on CNS cancer cell lines; details: Tables I and II
MALME-3M = experiment: NCI in vitro screen, SRB percent growth, Melanoma
SNB-75 = experiment: NCI in vitro screen, SRB percent growth, CNS Cancer
ACHN = experiment: NCI in vitro screen, SRB percent growth, Renal Cancer
DLD-1 = experiment: cells; details: Homo sapiens
SK-MEL-2 = experiment: NCI in vitro screen, SRB percent growth, Melanoma
EKVX = experiment: cells; details: Homo sapiens
M19-MEL = experiment: NCI in vitro screen, SRB percent growth, Melanoma
RPMI-8226 = experiment: cells; details: Homo sapiens
OVCAR-8 = experiment: NCI in vitro screen, SRB percent growth, Ovarian Cancer
UACC-62 = experiment: NCI in vitro screen, SRB percent growth, Melanoma
HL-60 (TB) = experiment: NCI in vitro screen, SRB percent growth, Leukemia
HOP-62 = experiment: NCI in vitro screen, SRB percent growth, Non-Small Cell Lung Cancer
M14 = experiment: NCI in vitro screen, SRB percent growth, Melanoma
[1] = Log10 Concentration -4.0, 100 µM
[2] = Log10 Concentration -7.0, 0.1 µM
[3] = DLD-1, read-out: Percent Growth
[4] = RPMI-8226, read-out: Percent Growth

## Cc1ccc2[nH]c3c(C)c4c(c(C)c3c2c1)CN(C)C=C4 [Formula XI]
K-562; [1]
  Percent Growth: 2%
K-562; Log10 Concentration -5.0
  Percent Growth: 6%
K-562; Log10 Concentration -6.0, 1 µM
  Percent Growth: 53%
K-562; [2]
  Percent Growth: 83%
K-562; Log10 Concentration -8.0
  Percent Growth: 95%
K-562; PG=0
  TGI: > 100 µM
K-562; PG=+50
  GI50: 1.17 µM
K-562; read-out: LC-50, PG=-50
  CC50: > 100 µM
NCI-H460; [1]
  Percent Growth: -85%
NCI-H460; Log10 Concentration -5.0
  Percent Growth: 8%
NCI-H460; Log10 Concentration -6.0, 1 µM
  Percent Growth: 78%
NCI-H460; [2]
  Percent Growth: 91%
NCI-H460; Log10 Concentration -8.0
  Percent Growth: 99%
NCI-H460; PG=0
  TGI: 12.1 µM
NCI-H460; PG=+50
  GI50: 2.51 µM
NCI-H460; read-out: LC-50, PG=-50
  CC50: 42.1 µM
OVCAR-3; [1]
  Percent Growth: -91%
OVCAR-3; Log10 Concentration -5.0
  Percent Growth: 5%
OVCAR-3; Log10 Concentration -6.0, 1 µM
  Percent Growth: 76%
OVCAR-3; [2]
  Percent Growth: 94%
OVCAR-3; Log10 Concentration -8.0
  Percent Growth: 98%
OVCAR-3; PG=0
  TGI: 11.3 µM
OVCAR-3; PG=+50
  GI50: 2.34 µM
OVCAR-3; read-out: LC-50, PG=-50
  CC50: 37.6 µM
CNS cancer cell lines
  effect against CNS cancer cell lines: particularly effective against CNS cancer cell lines
MALME-3M; [1]
  Percent Growth: -86%
MALME-3M; Log10 Concentration -5.0
  Percent Growth: -40%
MALME-3M; Log10 Concentration -6.0, 1 µM
  Percent Growth: 78%
MALME-3M; [2]
  Percent Growth: 115%
MALME-3M; Log10 Concentration -8.0
  Percent Growth: 113%
MALME-3M; PG=0
  TGI: 4.58 µM
MALME-3M; PG=+50
  GI50: 1.72 µM
MALME-3M; read-out: LC-50, PG=-50
  CC50: 16.4 µM
SNB-75; [1]
  Percent Growth: -97%
SNB-75; Log10 Concentration -5.0
  Percent Growth: -72%
SNB-75; Log10 Concentration -6.0, 1 µM
  Percent Growth: 20%
SNB-75; [2]
  Percent Growth: 109%
SNB-75; Log10 Concentration -8.0
  Percent Growth: 110%
SNB-75; PG=0
  TGI: 1.66 µM
SNB-75; PG=+50
  GI50: 0.462 µM
SNB-75; read-out: LC-50, PG=-50
  CC50: 5.75 µM
ACHN; [1]
  Percent Growth: -92%
ACHN; Log10 Concentration -5.0
  Percent Growth: 30%
ACHN; Log10 Concentration -6.0, 1 µM
  Percent Growth: 81%
ACHN; [2]
  Percent Growth: 96%
ACHN; Log10 Concentration -8.0
  Percent Growth: 101%
ACHN; PG=0
  TGI: 17.6 µM
ACHN; PG=+50
  GI50: 4.02 µM
ACHN; read-out: LC-50, PG=-50
  CC50: 45.1 µM
DLD-1; DLD-1
  GI50: 1.48 µM
DLD-1; DLD-1, read-out: LC-50
  CC50: 59 µM
DLD-1; [3]
  activity at 0.01 µM: 102%
  activity at 0.1 µM: 93%
  activity at 1 µM: 58%
  activity at 10 µM: 13%
  activity at 100 µM: -69%
DLD-1; DLD-1, read-out: TGI
  IC (TGI): 14.5 µM
SK-MEL-2; [1]
  Percent Growth: -94%
SK-MEL-2; Log10 Concentration -5.0
  Percent Growth: -92%
SK-MEL-2; Log10 Concentration -6.0, 1 µM
  Percent Growth: 94%
SK-MEL-2; [2]
  Percent Growth: 103%
SK-MEL-2; Log10 Concentration -8.0
  Percent Growth: 98%
SK-MEL-2; PG=0
  TGI: 3.2 µM
SK-MEL-2; PG=+50
  GI50: 1.72 µM
SK-MEL-2; read-out: LC-50, PG=-50
  CC50: 5.96 µM
EKVX
  GI50: 3.6 µM
EKVX; read-out: Percent Growth
  activity at 0.01 µM: 109%
  activity at 0.1 µM: 114%
  activity at 1 µM: 86%
  activity at 10 µM: 22%
  activity at 100 µM: -22%
EKVX; read-out: TGI
  IC (TGI): 31.2 µM
M19-MEL; [1]
  Percent Growth: -93%
M19-MEL; Log10 Concentration -5.0
  Percent Growth: -91%
M19-MEL; Log10 Concentration -6.0, 1 µM
  Percent Growth: 38%
M19-MEL; [2]
  Percent Growth: 93%
M19-MEL; Log10 Concentration -8.0
  Percent Growth: 94%
M19-MEL; PG=0
  TGI: 1.98 µM
M19-MEL; PG=+50
  GI50: 0.605 µM
M19-MEL; read-out: LC-50, PG=-50
  CC50: 4.83 µM
RPMI-8226; RPMI-8226
  GI50: 6.81 µM
RPMI-8226; RPMI-8226, read-out: LC-50
  CC50: > 100 µM
RPMI-8226; [4]
  activity at 0.01 µM: 109%
  activity at 0.1 µM: 106%
  activity at 1 µM: 103%
  activity at 10 µM: 39%
  activity at 100 µM: -27%
RPMI-8226; RPMI-8226, read-out: TGI
  IC (TGI): 39.3 µM
OVCAR-8; [1]
  Percent Growth: -95%
OVCAR-8; Log10 Concentration -5.0
  Percent Growth: -5%
OVCAR-8; Log10 Concentration -6.0, 1 µM
  Percent Growth: 37%
OVCAR-8; [2]
  Percent Growth: 81%
OVCAR-8; Log10 Concentration -8.0
  Percent Growth: 89%
OVCAR-8; PG=0
  TGI: 7.69 µM
OVCAR-8; PG=+50
  GI50: 0.516 µM
OVCAR-8; read-out: LC-50, PG=-50
  CC50: 31.8 µM
UACC-62; [1]
  Percent Growth: -84%
UACC-62; Log10 Concentration -5.0
  Percent Growth: -91%
UACC-62; Log10 Concentration -6.0, 1 µM
  Percent Growth: 92%
UACC-62; [2]
  Percent Growth: 100%
UACC-62; Log10 Concentration -8.0
  Percent Growth: 106%
UACC-62; PG=0
  TGI: 3.18 µM
UACC-62; PG=+50
  GI50: 1.69 µM
UACC-62; read-out: LC-50, PG=-50
  CC50: 5.99 µM
HL-60 (TB); [1]
  Percent Growth: -30%
HL-60 (TB); Log10 Concentration -5.0
  Percent Growth: 25%
HL-60 (TB); Log10 Concentration -6.0, 1 µM
  Percent Growth: 102%
HL-60 (TB); Log10 Concentration -8.0
  Percent Growth: 111%
HL-60 (TB); PG=0
  TGI: 28.7 µM
HL-60 (TB); PG=+50
  GI50: 4.8 µM
HL-60 (TB); read-out: LC-50, PG=-50
  CC50: > 100 µM
HOP-62; [1]
  Percent Growth: -89%
HOP-62; Log10 Concentration -5.0
  Percent Growth: -39%
HOP-62; Log10 Concentration -6.0, 1 µM
  Percent Growth: 11%
HOP-62; [2]
  Percent Growth: 119%
HOP-62; Log10 Concentration -8.0
  Percent Growth: 121%
HOP-62; PG=0
  TGI: 1.64 µM
HOP-62; PG=+50
  GI50: 0.433 µM
HOP-62; read-out: LC-50, PG=-50
  CC50: 16.3 µM
M14; [1]
  Percent Growth: -93%
M14; Log10 Concentration -5.0
  Percent Growth: 6%
M14; Log10 Concentration -6.0, 1 µM
  Percent Growth: 103%
M14; [2]
  Percent Growth: 94%
M14; Log10 Concentration -8.0
  Percent Growth: 106%
M14; PG=0
  TGI: 11.4 µM
M14; PG=+50
  GI50: 3.52 µM
M14; read-out: LC-50, PG=-50
  CC50: 36.8 µM
